From patent US20230285357A1, “COMPOSITIONS AND METHODS FOR […] CELLS” (The Regents of the University of California, priority 2020, published 2023)

Key:
[1] = system: vascular calcification in Mgp−/− mice; experiment: Late vascular calcification in Mgp−/− mice; assay type: in vivo, mouse
Protocol: It was next examined if SB216763 reversed osteogenesis in vascular calcification by treating Mgp^−/− mice at 4 weeks of age for 2 weeks (FIG. 5, Part F).
Mgp^+/− (B6.129S7-Mgptm1Kry/KbosJ), Col1α1^CreERT2 (B6.Cg-Tg(Col1α1-cre/ERT2)1Crm/J), GSK3β^flox/flox (B6.129(Cg)-Gsk3btm2Jrw/J) and Osx-Gfptg (B6.Cg-Tg(Sp7-tTA,tetO-EGFP/cre)1Amc/J) mice on C57BL/6J background were purchased from the Jackson Laboratory. Genotypes were confirmed by PCR, and experiments were performed with generation F4-F6. Littermates were used as wild type controls. All mice were fed a standard chow diet. The studies were reviewed and approved by the Institutional Review Board and conducted in accordance with the animal care guidelines set by the University of California, Los Angeles (UCLA). The investigation conformed to the National Research Council, Guide for the Care and Use of Laboratory Animals, Eighth Edition (Washington, D.C.: The National Academies Press, 2011).
(§1) MicroCT imaging was performed at the Crump Imaging Center at UCLA. All the samples were scanned on a high-resolution, volumetric microCT scanner (CT125). The image data were acquired with the following parameters: 10 μm isotropic voxel resolution; 200 ms exposure time; 2,000 views and 5 frames per view. The microCT-generated DICOM files were used to analyze the samples and to create volume renderings of the regions of interest. The raw data files were viewed using the MicroView 3-D volume viewer and analysis tool (GE Healthcare) and AltaViewer™ Software. Additionally, images of the samples were generated using SCIRun (Scientific Computing and Imaging Institute).

GFP+CD31+ aortic cells = experiment: Hindlimb ischemia model with GFP+CD31+ aortic cells of treated mice; assay type: in vivo, mouse; details: mice transplanted with GFP+CD31+ aortic cells of treated group
Protocol: The capacity of GFP+CD31+ aortic cells for vascular repair was examined by using hindlimb ischemia model. […] The murine model of hindlimb ischemia was performed as previously described. A 10 mm long incision of the skin was made towards the medial thigh. The femoral artery was exposed and separated from femoral vein and nerve. Silk sutures were used to tie the proximal and the distal end of femoral artery with double knots. The cells (5×10^5) were transplanted into the surgical area and the incision was closed. Laser Doppler perfusion imaging was used to monitor the blood flow at different time points. Histology and immunostaining were used to examine the vascularization 2 weeks after transplantation.

ectopic bone formation = experiment: Ectopic bone formation in vivo after transplantation of treated cells; parameters: species or system mouse
Protocol: (§2) To assess the functional capacity of SB216763-treated osteoblasts, they were treated with osteogenic induction media in vitro. […] A transplantation experiment was then performed to examine the capacity for bone formation using a well-established bone formation assay in vivo. This assay was adapted and eGFP positive cells were used, which were isolated from SB216763-treated Flk1-eGFP osteoblasts (FIG. 2, Part A).
(§3) The cells were then subjected to osteogenic induction media. […] Cells was transplanted into nude mice to test ectopic bone formation.
as §1
All the surgeries were performed on a heated pad with a connection to a continuous flow of isoflurane. Ectopic bone formation was performed as previously described: 5×10^5 cells were mixed with 40 mg hydroxyapatite/tricalcium phosphate power (SALVIN™, ORASTRUCT-0.5 CC) and incubated in a 1 ml syringe at 37° C. in 5% CO2 overnight. After disinfection with 70% ethanol, a skin incision was made on the back of mouse. A subcutaneous pouch was formed by blunt dissection. The mixture of cells and hydroxyapatite/tricalcium phosphate was transplanted into the pouch and the incision was closed. The implants were examined by microCT imaging and histology 12 weeks after transplantation.

[2] = system: mouse osteoblast line MC3T3; experiment: Flow cytometric analysis of SB216763-treated osteoblasts with anti-CD31 and anti-VE-cadherin antibodies; assay type: cell-based
Source text: A high throughput screen was generated by modifying the mouse osteoblast line MC3T3. Fetal liver kinase 1 (Flk1) promoter-driven enhanced green fluorescent protein (eGFP) was introduced into these osteoblasts. […] Several libraries of small molecules, including a FDA-approved drug library, a UCLA in-house collection, and a custom set of compounds were screened. These libraries contained more than 22,000 small molecules ranging from natural products to synthesized compounds. […] Using arrange of dose (1-10 μM), it is shown that the reduction of the osteogenic markers Cbfa1, osterix and osteocalcin and the induction of the endothelial markers CD34, VE-cadherin, CD31 and eNOS occurred in a dose-dependent manner (FIG. 1, Part E). Osteoblasts were then treated with 10 μM SB216763 and examined the time-course expression of these osteogenic and endothelial markers. […] It was further determined the specificity of endothelial differentiation by closely examining other vascular lineage markers including smooth muscle cells (SMCs), pericytes, and fibroblasts by using real-time PCR. […] Because GSK3 is important in glucose metabolism, the expression of genes related to glucose metabolism was determined in the SB216763-treated osteoblasts, such as casein kinase 2, glucose transporter 4, and insulin receptor substrates 1 and 2. […]

osteoblasts = experiment: Osteogenesis assay in osteogenic induction media, von Kossa staining; assay type: cell-based, mouse
Protocol: as §2, §3

[3] = Mgp−/− mice at 4 weeks of age treated for 2 weeks

**Q.** Which results are given for `Cn1cc(C2=C(c3ccc(Cl)cc3Cl)C(=O)NC2=O)c2ccccc21` [SB216763]?
**A.** CD31-positive cells co-expressing VE-cadherin and osterix, FACS [1, 3]: decrease of CD31-positive cells that co-expressed VE-cadherin and osterix; CD31-positive cells expressing VE-cadherin only, FACS [1, 3]: increase of CD31-positive cells that expressed VE-cadherin only; aortic calcification, microCT imaging [1, 3]: reduction of aortic calcification; histology of calcified areas of the aortas [1, 3]: change in morphology in calcified areas of the aortas; mineralization of whole aortic tissues, alizarin red staining [1, 3]: reduction of mineralization; total aortic calcium and mineral deposition [1, 3]: decrease of total aortic calcium and mineral deposition; osteogenic markers in aortic tissue, real-time PCR ([1]; treated Mgp−/− mice compared to non-treated mice): decrease of osteogenic markers; limb blood flow, Laser Doppler perfusion imaging (GFP+CD31+ aortic cells): higher limb blood flow; vascular density, histology (GFP+CD31+ aortic cells): increase in vascular density; osteocytes in implants, histology and immunostaining (ectopic bone formation; SB216763-treated cells with SMAD1 overexpression or knockdown of β-catenin): presence of osteocytes; osteocytes in implants, histology and immunostaining (ectopic bone formation; implants with eGFP positive cells from treated osteoblasts): lack of osteocytes; ectopic bone by microCT (ectopic bone formation; implants with eGFP positive cells from treated osteoblasts vs osteoblast controls): smaller size of ectopic bone, less trabecular formation and less bone volume; treated osteoblasts expressing the endothelial markers CD31 and VE-cadherin [2]: more than 85%; mineralization, von Kossa staining (osteoblasts; SB216763-treated cells after restoring SMAD1 or depletion of β-catenin): clear mineralization; mineralization, von Kossa staining (osteoblasts; SB216763-treated cells in osteogenic induction media): lack of mineralization
